These results are taken from US20170209489A1, “FAST ACTING INHIBITOR OF GASTRIC ACID SECRETION WITH ENHANCED ACTIVITY” (YALE UNIVERSITY, priority 2014, published 2017).

The structures appear in SMILES notation. Where two headings read alike, the source gives them in different places.

One test relates to isolated glands. On the procedure: In this series of studies Rats were given free access to water and normal rat chow for a period of 5 days. In one group 30 μM ZnSO4.7H2O was added to the drinking water so that the animals are getting a constant exposure of ZnSO4.7H2O. At the end of the 5 day period the animals were sacrificed and the stomach removed. We examined how these glands performed to addition of a secretagogue as previously defined in Protocol 1. In the second group we repeated the study giving 3 μM ZnSO4.7H2O for the 5 day period while allowing normal access to food and water.

The test system of a further test is isolated stomachs. As to conditions: simultaneous with secretagogue, 15 minute exposure, fasted rats. How it is done:
We took age and sex matched animals for these studies. The stomach was excised and perfused with 0.5 ml of nonbuffered saline solution in vitro with a solution of either 200 μM Carbachol or ZnSO4.7H2O+200 μM Carbachol following a 15 minute perfusion time we collected the effluent from the stomach and measure intragastric pH in this fluid following a protocol that we have used in the past.

The next test deals with isolated gastric glands. The settings on record: for reduction in secretagogue induced proton secretion (proton extrusion, acid production): Carbachol 200 μM, means from 5 rats; for inhibitory effect on secretagogue induced acid secretion, in words: rat gastric glands. On the procedure:
(§1) In this series of studies we used glands from rats that have been fasted for 18 hours with free access to water to reduce basal acid secretion to zero. Following isolation the glands were placed in a perfusion chamber that was maintained at 37° C. Prior to exposure to the Zn solution the glands were loaded with the Fluorescent reagent BCECF to monitor intracellular pH, this is based on technology we have used in the lab. In these studies we stimulated acid secretion by exposing the individual glands to 200 μM Carbachol a well characterized activator of acid secretion. In parallel to these studies (Control glands) we exposed glands from the same animal to a solution that contained ZnSO4.7H2O. […] In subsequent studies we then reduced the concentration of ZnSO4.7H2O by an order of magnitude ([…]) and repeated the study. For each dose used a minimum of 5 animals was used. […] We reduced to a concentration of 0.03 μM.

Another test has as its system isolated human glands. As to conditions: for inhibitory effect on secretagogue induced acid secretion, in words: human gastric glands. How it is done:
as §1
Note that doses of 300 μM and 3 μM were used. […] All data are the means from 5 separate human samples.

The mark [1] stands for this setting: listed as zinc sulfate heptahydate.

Take `O.O.O.O.O.O.O.O=S(=O)([O-])[O-].[Zn+2]` [zinc sulfate heptahydrate]: the “basal acid secretion in the gland” value with isolated glands (3 μM in drinking water for 7 days, versus blank water) is “slightly higher than blank water”; in the test on isolated glands (30 μM, 1 week ad lib access) it was “no basal acid secretion”. For the same compound, the “Carbachol (secretagogue) induced acid secretion” value in the test with isolated glands (3 μM in drinking water for 7 days, versus matched controls) is “marked suppression”. The “secretagogue (carbachol) induced acid secretion in the gland” value in the test with isolated glands (30 μM, 1 week ad lib access) was “no effect”. The “elevation in gastric pH” value is given as not below 1 pH unit with isolated stomachs (3 μM, listed as ZnSO4Heptahydrate); 1 pH unit in the test with isolated stomachs (3 μM, listed as ZnSO4.7H2O); not below 1 pH unit in the test on isolated stomachs (30 μM, listed as ZnSO4Heptahydrate); 1 pH unit with isolated stomachs (30 μM, listed as ZnSO4.7H2O). Further, the “inhibiting acid secretion in the stomach” value with isolated gastric glands (about 0.3 μM to about 300 μM, more often about 3 μM to about 30 μM) is reported as “almost complete inhibition”. The “reduction in secretagogue induced proton secretion (proton extrusion, acid production)” value with isolated gastric glands (dose of 0.03 μM) was “p<0.03 significant reduction”; in the test on isolated gastric glands (dose of 0.03 μM, listed as ZnSO4.7H2O), “modest yet significant inhibition of acid secretion (p<0.03)”; in the test on isolated gastric glands (doses from 300 to 0.3 μM) it was “significant p<0.0001 reduction”; with isolated gastric glands (doses from 300 to 0.3 μM, listed as ZnSO4.7H2O) it was “highly significant inhibition of proton extrusion (p<0.0001)”. Also, the “inhibitory effect on secretagogue induced acid secretion, in words” value in the test with isolated gastric glands (listed as ZnSO4.7H2O) is recorded as “potent inhibitor”; with isolated gastric glands (setting [1]) it was “abolishing the activity of the gastric H^+,K^+-ATPase”; in the test with isolated human glands (listed as ZnSO4.7H2O) it was “potent inhibitor”; in the test on isolated human glands (setting [1]), “abolishing the activity of the gastric H^+,K^+-ATPase”. Also, in the test on isolated human glands (doses of 300 μM and 3 μM, Carbachol, means from 5 human samples), the “inhibition of proton extrusion (acid secretion)” value is reported as “highly significant inhibition of proton extrusion (p<0.0001)”.
